One assay has as its system FAS. The conditions noted are these: cited from earlier work.
The target in assay [1] is T1, chicken FAS (overall reaction) (Gallus gallus, UniProt P12276).
T1 construct: tissue Huadu Broiler Corporation, Beijing; host or cells: chicken liver
The assay can be described thus: Time-dependent (slow-binding irreversible) inactivation of FAS overall reaction. The format is biochemical. As to the method:
(§1) Assay of time-dependent inhibition activity was carried out as previous described.[13] The FAS solution was mixed with garcinone E and incubated at 25 °C, and then aliquots were taken to measure the remaining activity at the indicated time intervals to obtain the time course. […] The rate constant of FAS inactivation can be calculated from a semi-log plot of the time course, which is based upon the formula ln At/A0 = −kobst. The At/A0 expresses the remaining activity at t time, and kobs is the observed rate constant. Based on earlier studies, the inhibition of FAS activity is due to both fast-binding and time-dependent inhibitions, although sometimes the fast-binding reversible inhibition is not potent enough to affect the enzyme.

Assay [2] has as its target T2, KR (β-ketoacyl reductase) of chicken FAS (Gallus gallus, UniProt P12276).
T2 construct: tissue Huadu Broiler Corporation, Beijing; host or cells: chicken liver
The assay can be described thus: Time-dependent inactivation of KR reaction of FAS. The format is biochemical. As to the method:
(§2) The activity of KR was determined at 37 °C by measuring the change of absorption at 340 nm. The KR reaction mixture (2 ml) contained 40 mM ethyl acetoacetate, 35 μM NADPH, 1 mM EDTA, 1 mM DTT and 10 μg of FAS in 100 mM phosphate buffer, pH 7.0.[28]
as §1

For assay [3], the target named is T2, KR (β-ketoacyl reductase) of chicken FAS. The assay can be described thus: Fast-binding inhibition of β-ketoacyl reduction (KR) activity of FAS. Type of assay: biochemical. The note with it: fast-binding reversible inhibition, 37 °C. As to the method:
(§3) The preparation of FAS from chicken liver (Huadu Broiler Corporation, Beijing) was performed as described previously.[24] The amino acid sequence of chicken FAS has 63% identity with the sequence of human enzyme.[25] All animal operations followed the Guidelines for the Care and Use of Laboratory Animals established by the National Research Council (US) Institute for Laboratory Animal Research. The purified FAS was homogenized by polyacrylamide gel electrophoresis in the presence and absence of sodium dodecyl sulfate, respectively.
(§4) The FAS activity was measured at 37 °C by spectrophotometer at 340 nm of NADPH absorption. The overall reaction system contained 100 mM KH2PO4–K2HPO4 buffer, 1 mM EDTA, 1 mM dithiothreitol, 3 μM Ac-CoA, 10 μM Mal-CoA, 35 μM NADPH, and 10 μg FAS in a total volume of 2 ml as previously described.[26,27] The assay for β-ketoacyl reduction activity of FAS was catalyzed by KR containing 100 mM KH2PO4–K2HPO4 buffer, 200 mM ethyl acetoacetate, 35 μM NADPH, and 20 μg FAS in a total volume of 2 ml (pH 7.0).
as §2

A further assay addresses T3, chicken FAS (Gallus gallus, UniProt P12276).
T3 construct: tissue Huadu Broiler Corporation, Beijing; host or cells: chicken liver
The assay can be described thus: Substrate protection for time-dependent inactivation of FAS. The conditions noted are these: 10.0 μM garcinone E. Type of assay: biochemical. As to the method: as §1
Furthermore, substrate protection for time-dependent inhibition was examined in the measurement of FAS inactivation by garcinone E with 10 μM Ac-CoA, 10 μM Mal-CoA, or 10 μM NADPH, respectively. Inactivation in the same condition but without any substrate was the control. […] Therefore, the substrates of Mal-CoA and NADPH had no obvious protection effect. However, the inactivation was slowed by Ac-CoA.

Assay [4] concerns the target T1, chicken FAS (overall reaction). The assay can be described thus: Enzyme inhibition kinetics (double reciprocal plots, variable substrate). Type of assay: biochemical. The conditions noted are these: for pKi: secondary plot of slopes, read-out: Inhibition constant Kis; for Inhibition constant Kii: secondary plot of intercepts. The source says:
Possible interference by the inhibitor at each substrate binding site was examined by holding the concentration of the inhibitor at several fixed levels respectively, and increasing one substrate concentration while keeping the concentrations of the other substrates constant. Double reciprocal plots for every concentration of the inhibitor were yielded to estimate the competitive relationship between the variable substrate and inhibitor concentrations. This study is based on fast-binding inhibition.
Inhibition kinetics study was carried out to elucidate the mechanism of the reversible inhibition of FAS by garcinone E. Possible interference by garcinone E at each substrate-binding site was examined by holding the concentration of garcinone E at a constant value, and measuring the effect of increasing one substrate concentration (the concentrations of the other two substrates were fixed) on the initial reaction rate. Double-reciprocal plots of the results (Fig. 3A–C) yielded three families of straight lines, which had different intersections, for three substrates of FAS. […] However, the lines for NADPH (Fig. 3C) intersected on the X axis, from which it was concluded that garcinone E was a typically noncompetitive inhibitor of FAS against NADPH.
Fig. 3 Lineweaver–Burke plots for inhibition of FAS activity by garcinone E. Double reciprocal plots for inhibition of FAS by garcinone E. The activity of the overall reaction of FAS was measured. (A) The concentrations of Mal-CoA and NADPH were fixed at 10 μM and 35 μM, respectively. Ac-CoA was the variable substrate. […] (B) The concentrations of Ac-CoA and NADPH were fixed at 3 μM and 35 μM, respectively. Mal-CoA was the variable substrate. […] (C) The concentrations of Ac-CoA and Mal-CoA were fixed at 3 μM and 10 μM, respectively. NADPH was the variable substrate. […] Each datum was the mean from 2–5 experiments.

For assay [5] the target is unchanged. The assay can be described thus: Fast-binding inhibition of FAS overall reaction (NADPH absorption at 340 nm). The format is biochemical. The note with it: fast-binding reversible inhibition, 37 °C; read-out: IC50 (half-inhibitory concentration), overall reaction of FAS. As to the method: as §3, §4
Reversible inhibition was determined by adding the inhibitor to the reaction system before the reaction was initiated. The activities of FAS in the presence and absence of garcinone E (dissolved in DMSO) were designated as Ai and A0 respectively. The value of Ai/A0 × 100% was defined as the relative activity (R.A.) of FAS. […]

pIC50, pKi: −log10 of the molar value. Like-named read-outs stand apart in the source and are kept apart here.

T3 sequence (P12276 whole entry): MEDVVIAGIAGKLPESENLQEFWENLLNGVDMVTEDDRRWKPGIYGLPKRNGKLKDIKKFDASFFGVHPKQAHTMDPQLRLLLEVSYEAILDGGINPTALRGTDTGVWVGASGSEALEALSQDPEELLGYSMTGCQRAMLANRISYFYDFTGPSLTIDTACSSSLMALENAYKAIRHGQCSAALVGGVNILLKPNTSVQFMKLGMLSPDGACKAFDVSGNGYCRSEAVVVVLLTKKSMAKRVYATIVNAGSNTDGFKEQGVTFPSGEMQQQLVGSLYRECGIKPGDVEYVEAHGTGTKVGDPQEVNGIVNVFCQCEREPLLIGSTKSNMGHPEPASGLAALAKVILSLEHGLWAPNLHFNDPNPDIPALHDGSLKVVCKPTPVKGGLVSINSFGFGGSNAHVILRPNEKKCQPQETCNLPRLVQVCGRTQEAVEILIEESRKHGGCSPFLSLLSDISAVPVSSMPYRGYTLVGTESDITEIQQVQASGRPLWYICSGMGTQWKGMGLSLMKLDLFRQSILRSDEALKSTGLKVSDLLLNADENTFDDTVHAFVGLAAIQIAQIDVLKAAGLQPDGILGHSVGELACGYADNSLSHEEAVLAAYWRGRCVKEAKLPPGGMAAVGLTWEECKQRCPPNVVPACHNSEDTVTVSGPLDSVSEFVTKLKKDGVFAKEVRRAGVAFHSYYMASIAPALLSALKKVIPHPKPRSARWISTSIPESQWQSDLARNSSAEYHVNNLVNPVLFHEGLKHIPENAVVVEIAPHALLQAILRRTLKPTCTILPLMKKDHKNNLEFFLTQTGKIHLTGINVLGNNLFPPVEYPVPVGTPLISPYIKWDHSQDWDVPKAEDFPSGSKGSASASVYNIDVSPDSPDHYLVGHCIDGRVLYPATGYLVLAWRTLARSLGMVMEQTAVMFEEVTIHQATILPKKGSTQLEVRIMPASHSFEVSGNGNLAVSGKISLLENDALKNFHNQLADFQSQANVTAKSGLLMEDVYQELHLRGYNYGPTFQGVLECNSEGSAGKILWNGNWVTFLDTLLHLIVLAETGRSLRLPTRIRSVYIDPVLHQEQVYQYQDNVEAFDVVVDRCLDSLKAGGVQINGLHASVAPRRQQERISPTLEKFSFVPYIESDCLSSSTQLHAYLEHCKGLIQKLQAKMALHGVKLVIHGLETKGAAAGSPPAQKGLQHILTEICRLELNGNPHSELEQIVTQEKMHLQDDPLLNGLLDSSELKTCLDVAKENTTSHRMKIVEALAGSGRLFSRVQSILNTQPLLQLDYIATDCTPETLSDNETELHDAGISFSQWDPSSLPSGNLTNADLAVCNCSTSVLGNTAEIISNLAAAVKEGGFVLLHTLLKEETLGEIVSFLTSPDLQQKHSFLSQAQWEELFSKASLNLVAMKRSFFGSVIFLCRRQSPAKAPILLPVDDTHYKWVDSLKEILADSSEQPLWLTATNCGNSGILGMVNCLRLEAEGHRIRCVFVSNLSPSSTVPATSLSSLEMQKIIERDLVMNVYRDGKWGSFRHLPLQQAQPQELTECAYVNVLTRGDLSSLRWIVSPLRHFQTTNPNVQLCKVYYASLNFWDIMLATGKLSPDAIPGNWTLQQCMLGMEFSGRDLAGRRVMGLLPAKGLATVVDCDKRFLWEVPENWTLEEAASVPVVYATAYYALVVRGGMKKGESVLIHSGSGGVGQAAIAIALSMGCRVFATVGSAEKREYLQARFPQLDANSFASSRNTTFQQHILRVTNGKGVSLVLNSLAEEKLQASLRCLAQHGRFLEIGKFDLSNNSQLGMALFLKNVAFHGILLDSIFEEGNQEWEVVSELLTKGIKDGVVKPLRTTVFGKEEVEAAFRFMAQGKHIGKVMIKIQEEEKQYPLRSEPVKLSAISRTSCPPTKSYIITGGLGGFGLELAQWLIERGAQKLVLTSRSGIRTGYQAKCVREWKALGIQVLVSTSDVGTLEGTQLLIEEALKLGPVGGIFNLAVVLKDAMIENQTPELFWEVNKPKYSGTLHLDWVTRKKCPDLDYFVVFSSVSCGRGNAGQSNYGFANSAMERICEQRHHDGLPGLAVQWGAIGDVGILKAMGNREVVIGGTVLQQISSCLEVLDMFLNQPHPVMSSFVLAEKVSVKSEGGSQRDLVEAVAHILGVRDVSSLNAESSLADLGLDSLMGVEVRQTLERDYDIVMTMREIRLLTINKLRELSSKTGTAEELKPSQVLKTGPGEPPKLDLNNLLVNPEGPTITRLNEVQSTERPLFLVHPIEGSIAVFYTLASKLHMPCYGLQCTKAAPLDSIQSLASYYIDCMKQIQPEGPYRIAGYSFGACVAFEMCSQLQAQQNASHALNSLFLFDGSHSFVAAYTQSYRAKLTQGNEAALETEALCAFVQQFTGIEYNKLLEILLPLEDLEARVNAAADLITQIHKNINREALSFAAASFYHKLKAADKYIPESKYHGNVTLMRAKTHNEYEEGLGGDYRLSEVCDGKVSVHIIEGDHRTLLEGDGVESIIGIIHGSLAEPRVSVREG
T1 sequence (P12276 whole entry): as above
T2 sequence (P12276 whole entry): as above

Consider `O=C(O[C@@H]1Cc2c(O)cc(O)cc2O[C@@H]1c1cc(O)c(O)c(O)c1)c1cc(O)c(O)c(O)c1` [EGCG, epigallocatechin gallate], for which the pIC50 in the assay with FAS is 4.28.
Regarding `C/C=C/C/C=C/CCC(=O)[C@H]1O[C@H]1C(N)=O` [cerulenin], the pIC50 in the assay with FAS was 4.05.
With `CC(C)=CCc1c(O)cc2oc3c(CC=C(C)C)c(O)c(O)c(CC=C(C)C)c3c(=O)c2c1O` [garcinone E, 2,3,6,8-tetrahydroxy-1,4,7-tris(3-methylbut-2-enyl)-9H-xanthen-9-one], the “time-dependent (slow-binding irreversible) inhibition of FAS overall reaction, in words” value in assay [1] is “slow-binding irreversible inhibition”. Besides, the “fold difference in inactivation rate between overall reaction and KR” value in assay [1] (20.0 μM garcinone E) is listed as “more than 20 fold”. Further, the “irreversible inhibition on KR, in words” value in assay [2] is “very weak”. For the same compound, the “kobs of FAS inactivation, KR” value in assay [2] (20.0 μM garcinone E, incubated at 25 °C) turned out to be 0.0004 min⁻¹. Further, the pIC50 in assay [3] is 4.84; in assay [5] it was 5.48. The “kobs for inactivation of FAS” value at chicken FAS (no protection) is 17.4 10^−3 min^−1; at chicken FAS (protection by 10 μM Ac-CoA), 5.3 10^−3 min^−1; on chicken FAS (protection by 10 μM Mal-CoA) it was 16.6 10^−3 min^−1; on chicken FAS (protection by 10 μM NADPH), 15.9 10^−3 min^−1. On chicken FAS (pre-incubation with Mal-CoA and NADPH), the “reduction of apparent rate constant by pre-incubation with substrate” value is given as “less than 10%”. In addition, the Inhibitory manner result in assay [4] (variable substrate Ac-CoA, Mal-CoA 10 μM, NADPH 35 μM) is “Competitive”; in assay [4] (variable substrate Mal-CoA, Ac-CoA 3 μM, NADPH 35 μM), “Mixed competitive and noncompetitive”; in assay [4] (variable substrate NADPH, Ac-CoA 3 μM, Mal-CoA 10 μM) it was “Noncompetitive”. Further, the pKi in assay [4] (variable substrate Ac-CoA) is 5.75; in assay [4] (variable substrate Mal-CoA), 5.41; in assay [4] (variable substrate NADPH) it was 5.71. Further, the “Inhibition constant Kii” value in assay [4] (variable substrate Mal-CoA, binding with enzyme-substrate complex) is 5.99 µM; in assay [4] (variable substrate NADPH), 2.67 µM.
With `COc1c(O)cc2oc3cc(O)c(CC=C(C)C)c(O)c3c(=O)c2c1CC=C(C)C` [α-mangostin], in assay [1], the “time-dependent (slow-binding irreversible) inhibition of FAS overall reaction, in words” value is “none of them showed slow-binding inactivation”.
Consider `COc1cc2oc3cc(O)c(OC)c(CC=C(C)C)c3c(=O)c2c(O)c1CC=C(C)C` [β-mangostin], for which the “time-dependent (slow-binding irreversible) inhibition of FAS overall reaction, in words” value in assay [1] is “none of them showed slow-binding inactivation”.
As to `CC(C)=CCc1c(O)cc2oc3cc(O)c(O)c(CC=C(C)C)c3c(=O)c2c1O` [γ-mangostin], the “time-dependent (slow-binding irreversible) inhibition of FAS overall reaction, in words” value in assay [1] is “none of them showed slow-binding inactivation”.

The values above are taken from article PMC9078525, “Inhibitory effects of garcinone E on fatty acid synthase” (RSC Advances, 2018).
